What was measured:
CYP2C8 = target: T1, CYP2C8 (Homo sapiens, UniProt P10632); experiment: CYP Inhibition Assay (CYP2C8, human liver microsomes, paclitaxel substrate); assay type: in vitro ADME; conditions: pH 7.4; pooled human liver microsomes 0.1 mg/mL, probe substrate paclitaxel
T1 construct: Pooled human microsomes were obtained from Sekisui XenoTech, KS; tissue Sekisui XenoTech, KS; host or cells: pooled human liver microsomes
T1 sequence (P10632 1-490): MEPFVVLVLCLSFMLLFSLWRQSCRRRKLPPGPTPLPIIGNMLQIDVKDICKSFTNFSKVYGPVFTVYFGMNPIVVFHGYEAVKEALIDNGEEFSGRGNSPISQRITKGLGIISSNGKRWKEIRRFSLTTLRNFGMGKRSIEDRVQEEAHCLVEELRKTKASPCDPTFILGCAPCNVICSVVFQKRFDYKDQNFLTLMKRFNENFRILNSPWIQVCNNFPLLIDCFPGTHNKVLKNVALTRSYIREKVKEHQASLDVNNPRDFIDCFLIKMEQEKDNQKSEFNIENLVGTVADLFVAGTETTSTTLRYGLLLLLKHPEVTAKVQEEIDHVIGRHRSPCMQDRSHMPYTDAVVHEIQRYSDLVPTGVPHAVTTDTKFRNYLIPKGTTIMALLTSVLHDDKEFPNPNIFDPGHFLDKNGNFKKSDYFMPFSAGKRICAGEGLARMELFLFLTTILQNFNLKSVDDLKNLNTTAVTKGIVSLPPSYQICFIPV
Summary of the method: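 CYP2C8 activity read as 6α-hydroxypaclitaxel formation by LC-MS/MS, with % inhibition versus vehicle control. Reactions ran 5 min at 37° C, pH 7.4 phosphate buffer, 0.1 mg/mL pooled human liver microsomes, 1 mM NADPH, duplicate wells.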

GR = target: T2, GR (Homo sapiens, UniProt P04150); experiment: In Vitro GR Luciferase Reporter Assay (antagonist mode, CHO-K1-GR-MMTV-Luc reporter cells); assay type: cell-based
T2 construct: expressed in transfected cells; host or cells: CHO-K1
T2 sequence (P04150 1-777): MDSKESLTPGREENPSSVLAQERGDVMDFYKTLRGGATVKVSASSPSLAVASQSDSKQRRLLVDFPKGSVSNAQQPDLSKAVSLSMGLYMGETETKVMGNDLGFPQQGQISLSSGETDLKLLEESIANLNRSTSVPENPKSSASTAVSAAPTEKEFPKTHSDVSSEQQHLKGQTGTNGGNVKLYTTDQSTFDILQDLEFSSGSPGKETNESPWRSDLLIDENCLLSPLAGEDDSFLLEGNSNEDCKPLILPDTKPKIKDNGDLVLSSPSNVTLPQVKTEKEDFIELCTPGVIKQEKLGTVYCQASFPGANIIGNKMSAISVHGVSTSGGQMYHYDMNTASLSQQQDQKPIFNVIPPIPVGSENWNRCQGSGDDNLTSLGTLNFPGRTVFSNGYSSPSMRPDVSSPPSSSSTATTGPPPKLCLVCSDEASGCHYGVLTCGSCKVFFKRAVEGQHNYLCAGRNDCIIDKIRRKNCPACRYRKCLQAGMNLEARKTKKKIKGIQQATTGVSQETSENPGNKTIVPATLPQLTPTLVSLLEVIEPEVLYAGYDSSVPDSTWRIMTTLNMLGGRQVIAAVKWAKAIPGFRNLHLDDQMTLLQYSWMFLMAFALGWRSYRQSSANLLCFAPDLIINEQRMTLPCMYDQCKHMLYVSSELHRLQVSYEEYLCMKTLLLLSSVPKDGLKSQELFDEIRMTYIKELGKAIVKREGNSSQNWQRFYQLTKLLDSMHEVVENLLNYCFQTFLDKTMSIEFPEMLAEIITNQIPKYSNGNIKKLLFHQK
Summary of the method: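 Antagonist mode: compounds (8 serial 1:5 dilutions) added to GR-MMTV-luciferase CHO-K1 reporter cells co-exposed to 10 nM dexamethasone final, in phenol red-free DMEM plus 10% CSS. After roughly 18-24 h at 37° C, OneGlo luminescence read and IC50 calculated.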

[1] = antagonist mode, 10 nM Dexamethasone
[2] = antagonist assay with 10 nM Dexamethasone, 18-24 hours

Compound	inhibition at 5 min (CYP2C8) [%]	IC50 (GR; [1]) [nM]	IC50 (GR; [2]) [nM]
Cn1cc(C(=O)N(C2CC2)[C@H]2CCC3=Cc4c(cnn4-c4ccc(F)cc4)C[C@]3(C(=O)c3cc(C(F)(F)F)ccn3)C2)cn1 [Example 102, N-cyclopropyl-N-((4aS,6S)-1-(4-fluorophenyl)-4a-(4-(trifluoromethyl)picolinoyl)-4,4a,5,6,7,8-hexahydro-1H-benzo[f]indazol-6-yl)-1-methyl-1H-pyrazole-4-carboxamide]	75 to 90	–	≤ 100
CN([C@H]1CCC2=Cc3c(cnn3-c3ccc(F)cc3)C[C@]2(C(=O)c2cc(C(F)(F)F)ccn2)C1)S(=O)(=O)c1cnn(C)n1 [Example 90, N-((4aS,6S)-1-(4-fluorophenyl)-4a-(4-(trifluoromethyl)picolinoyl)-4,4a,5,6,7,8-hexahydro-1H-benzo[f]indazol-6-yl)-N,2-dimethyl-2H-1,2,3-triazole-4-sulfonamide]	50 to 75	–	≤ 100
Cn1ccc(S(=O)(=O)[C@@]2(F)CCC3=Cc4c(cnn4-c4ccc(F)cc4)C[C@]3(C(=O)c3cc(C(F)(F)F)ccn3)C2)n1 [Example 114, ((4aS,6S)-6-Fluoro-1-(4-fluorophenyl)-6-((1-methyl-1H-pyrazol-3-yl)sulfonyl)-1,4,5,6,7,8-hexahydro-4aH-benzo[f]indazol-4a-yl)(4-(trifluoromethyl)pyridin-2-yl)methanone]	≤ 25	≤ 100	–
Cn1ccc(S(=O)(=O)N(C2CC(F)(F)C2)[C@H]2CCC3=Cc4c(cnn4-c4ccc(F)cc4)C[C@]3(C(=O)c3cc(Cl)ccn3)C2)n1 [Example 349, N-((4aS,6S)-4a-(4-chloropicolinoyl)-1-(4-fluorophenyl)-4,4a,5,6,7,8-hexahydro-1H-benzo[f]indazol-6-yl)-N-(3,3-difluorocyclobutyl)-1-methyl-1H-pyrazole-3-sulfonamide]	25 to 50	≤ 100	–
CN([C@H]1CCC2=Cc3c(cnn3-c3ccc(F)cc3)C[C@]2(C(=O)c2ncc(C(F)(F)F)s2)C1)S(=O)(=O)c1cnn(C)c1 [Example 131, N-((4aS,6S)-1-(4-fluorophenyl)-4a-(5-(trifluoromethyl)thiazole-2-carbonyl)-4,4a,5,6,7,8-hexahydro-1H-benzo[f]indazol-6-yl)-N,1-dimethyl-1H-pyrazole-4-sulfonamide]	50 to 75	≤ 100	–
Cn1ncc(S(=O)(=O)N(C2CC2)[C@H]2CCC3=Cc4c(cnn4-c4ccc(F)cc4)C[C@]3(C(=O)c3cc(F)ccn3)C2)n1 [Example 263, N-cyclopropyl-N-((4aS,6S)-1-(4-fluorophenyl)-4a-(4-fluoropicolinoyl)-4,4a,5,6,7,8-hexahydro-1H-benzo[f]indazol-6-yl)-2-methyl-2H-1,2,3-triazole-4-sulfonamide]	75 to 90	≤ 100	–
Cn1cnc(S(=O)(=O)N(C2CC2)[C@H]2CCC3=Cc4c(cnn4-c4ccc(F)cc4)C[C@]3(C(=O)c3ncc(C(F)(F)F)s3)C2)c1 [Example 201, N-cyclopropyl-N-((4aS,6S)-1-(4-fluorophenyl)-4a-(5 (trifluoromethyl)thiazole-2-carbonyl)-4,4a,5,6,7,8-hexahydro-1H-benzo[f]indazol-6-yl)-1-methyl-1H-imidazole-4-sulfonamide]	≤ 25	≤ 100	–

More lines, now with the values ahead:

inhibition at 5 min (CYP2C8) [%]	IC50 (GR; [1]) [nM]	IC50 (GR; [2]) [nM]	Compound
75 to 90	≤ 100	–	CC(C)N([C@H]1CCC2=Cc3c(cnn3-c3ccc(F)cc3)C[C@]2(C(=O)c2cc(C(F)(F)F)ccn2)C1)S(=O)(=O)c1cnn(C)n1 [Example 234, N-((4aS,6S)-1-(4-fluorophenyl)-4a-(4-(trifluoromethyl)picolinoyl)-4,4a,5,6,7,8-hexahydro-1H-benzo[f]indazol-6-yl)-N-isopropyl-2-methyl-2H-1,2,3-triazole-4-sulfonamide]
75 to 90	≤ 100	–	CC(C)N([C@H]1CCC2=Cc3c(cnn3-c3ccc(F)cc3)C[C@]2(C(=O)c2cc(Cl)ccn2)C1)S(=O)(=O)c1ccn(C)n1 [Example 242, N-((4aS,6S)-4a-(4-chloropicolinoyl)-1-(4-fluorophenyl)-4,4a,5,6,7,8-hexahydro-1H-benzo[f]indazol-6-yl)-N-isopropyl-1-methyl-1H-pyrazole-3-sulfonamide]
25 to 50	≤ 100	–	Cn1cnc(S(=O)(=O)N(CC2CC2)[C@H]2CCC3=Cc4c(cnn4-c4ccc(F)cc4)C[C@]3(C(=O)c3ncc(C(F)(F)F)s3)C2)n1 [Example 315, N-(cyclopropylmethyl)-N-((4aS,6S)-1-(4-fluorophenyl)-4a-(5-(trifluoromethyl)thiazole-2-carbonyl)-4,4a,5,6,7,8-hexahydro-1H-benzo[f]indazol-6-yl)-1-methyl-1H-1,2,4-triazole-3-sulfonamide]
50 to 75	≤ 100	–	Cn1cc(S(=O)(=O)N(C2CC2)[C@H]2CCC3=Cc4c(cnn4-c4ccc(F)cc4)C[C@]3(C(=O)c3cc(F)ccn3)C2)nn1 [Example 265, N-cyclopropyl-N-((4aS,6S)-1-(4-fluorophenyl)-4a-(4-fluoropicolinoyl)-4,4a,5,6,7,8-hexahydro-1H-benzo[f]indazol-6-yl)-1-methyl-1H-1,2,3-triazole-4-sulfonamide]
25 to 50	≤ 100	–	Cn1ccc(S(=O)(=O)N(C2CCC2)[C@H]2CCC3=Cc4c(cnn4-c4ccc(F)cc4)C[C@]3(C(=O)c3cc(C(F)(F)F)ccn3)C2)n1 [Example 206, N-cyclobutyl-N-((4aS,6S)-1-(4-fluorophenyl)-4a-(4-(trifluoromethyl)picolinoyl)-4,4a,5,6,7,8-hexahydro-1H-benzo[f]indazol-6-yl)-1-methyl-1H-pyrazole-3-sulfonamide]
≤ 25	≤ 100	–	Cn1cnc(S(=O)(=O)N(C2CC(F)(F)C2)[C@H]2CCC3=Cc4c(cnn4-c4ccc(F)cc4)C[C@]3(C(=O)c3cc(C(F)(F)F)ccn3)C2)c1 [Example 325, N-(3,3-difluorocyclobutyl)-N-((4aS,6S)-1-(4-fluorophenyl)-4a-(4-(trifluoromethyl)picolinoyl)-4,4a,5,6,7,8-hexahydro-1H-benzo[f]indazol-6-yl)-1-methyl-1H-imidazole-4-sulfonamide]
25 to 50	≤ 100	–	CC(C)N([C@H]1CCC2=Cc3c(cnn3-c3ccc(F)cc3)C[C@]2(C(=O)c2ncc(C(F)(F)F)s2)C1)S(=O)(=O)c1cn(C)nn1 [Example 282, N-((4aS,6S)-1-(4-fluorophenyl)-4a-(5-(trifluoromethyl)thiazole-2-carbonyl)-4,4a,5,6,7,8-hexahydro-1H-benzo[f]indazol-6-yl)-N-isopropyl-1-methyl-1H-1,2,3-triazole-4-sulfonamide]
50 to 75	≤ 100	–	Cn1ncc(S(=O)(=O)N(CC(C)(C)O)[C@H]2CCC3=Cc4c(cnn4-c4ccc(F)cc4)C[C@]3(C(=O)c3ncc(C(F)(F)F)s3)C2)n1 [Example 236, N-((4aS,6S)-1-(4-fluorophenyl)-4a-(5-(trifluoromethyl)thiazole-2-carbonyl)-4,4a,5,6,7,8-hexahydro-1H-benzo[f]indazol-6-yl)-N-(2-hydroxy-2-methylpropyl)-2-methyl-2H-1,2,3-triazole-4-sulfonamide]
50 to 75	≤ 100	–	Cn1ncc(S(=O)(=O)N(C2CC2)[C@H]2CCC3=Cc4c(cnn4-c4ccc(F)cc4)C[C@]3(C(=O)c3cc(C(F)(F)F)ccn3)C2)n1 [Example 142, N-cyclopropyl-N-((4aS,6S)-1-(4-fluorophenyl)-4a-(4-(trifluoromethyl)picolinoyl)-4,4a,5,6,7,8-hexahydro-1H-benzo[f]indazol-6-yl)-2-methyl-2H-1,2,3-triazole-4-sulfonamide]
